This is an account of results in ChEMBL document CHEMBL1136002 (J Med Chem, 2002).

The target in assay [1] is T1, Sodium-dependent serotonin transporter (Homo sapiens, UniProt P31645). The experiment in a line: Binding affinity for serotonin transporter (SERT) using [125I]RTI-55.
Target sequence in this assay (P31645 whole entry): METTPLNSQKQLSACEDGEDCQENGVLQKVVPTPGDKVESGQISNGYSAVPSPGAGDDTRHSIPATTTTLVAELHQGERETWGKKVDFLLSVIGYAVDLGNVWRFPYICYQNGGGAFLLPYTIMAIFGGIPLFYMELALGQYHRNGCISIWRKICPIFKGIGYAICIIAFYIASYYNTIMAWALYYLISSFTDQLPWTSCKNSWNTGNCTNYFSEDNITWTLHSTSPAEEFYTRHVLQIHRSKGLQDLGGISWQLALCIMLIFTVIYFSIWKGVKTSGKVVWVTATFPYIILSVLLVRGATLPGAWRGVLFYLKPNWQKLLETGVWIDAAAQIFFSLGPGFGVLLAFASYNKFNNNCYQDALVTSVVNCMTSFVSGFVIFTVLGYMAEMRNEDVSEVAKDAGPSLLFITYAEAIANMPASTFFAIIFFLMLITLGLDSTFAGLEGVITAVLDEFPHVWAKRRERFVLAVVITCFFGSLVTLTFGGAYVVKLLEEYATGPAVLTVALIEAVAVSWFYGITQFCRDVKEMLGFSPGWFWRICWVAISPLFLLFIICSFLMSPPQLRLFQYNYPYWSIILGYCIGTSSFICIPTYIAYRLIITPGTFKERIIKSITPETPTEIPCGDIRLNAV
In assay [2] the target is T1, Sodium-dependent serotonin transporter. The experiment in a line: Ratio of Ki value towards Serotonin transporter (SERT) to that of Dopamine transporter (DAT).
Target sequence in this assay (P31645 whole entry, looked up): as the sequence (P31645 whole entry) above
Assay [3] addresses T2, Sodium-dependent dopamine transporter (Homo sapiens, UniProt Q01959). The experiment in a line: Binding affinity towards dopamine transporter (DAT) by using [125I]RTI-55 radioligand.
Assay [4] concerns the target T2, Sodium-dependent dopamine transporter. Put plainly: Compound was tested for the inhibition of dopamine (DA) reuptake. The assay is classed as functional.
Assay [5] deals with Sodium-dependent noradrenaline transporter (Homo sapiens, UniProt P23975). The experiment in a line: Compound was tested for the inhibition of norepinephrine (NE) reuptake. The assay is classed as functional.
Chain of Sodium-dependent noradrenaline transporter (P23975 whole entry): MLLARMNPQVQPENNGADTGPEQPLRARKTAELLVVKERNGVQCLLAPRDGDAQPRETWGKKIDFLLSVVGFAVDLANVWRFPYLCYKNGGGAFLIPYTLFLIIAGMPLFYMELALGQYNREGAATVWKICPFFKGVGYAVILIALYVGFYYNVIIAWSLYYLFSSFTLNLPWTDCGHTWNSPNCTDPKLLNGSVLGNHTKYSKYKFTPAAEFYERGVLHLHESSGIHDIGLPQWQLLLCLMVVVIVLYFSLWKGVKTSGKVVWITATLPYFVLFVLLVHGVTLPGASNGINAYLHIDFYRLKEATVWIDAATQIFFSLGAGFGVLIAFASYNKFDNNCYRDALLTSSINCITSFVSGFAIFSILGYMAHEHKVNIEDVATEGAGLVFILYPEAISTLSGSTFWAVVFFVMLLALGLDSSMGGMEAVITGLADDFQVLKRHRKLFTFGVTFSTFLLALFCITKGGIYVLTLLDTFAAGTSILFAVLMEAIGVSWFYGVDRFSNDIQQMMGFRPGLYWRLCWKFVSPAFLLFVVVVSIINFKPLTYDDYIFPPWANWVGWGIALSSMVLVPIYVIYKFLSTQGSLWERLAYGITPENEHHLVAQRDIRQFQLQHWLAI
Assay [6] deals with T1, Sodium-dependent serotonin transporter. The experiment in a line: Compound was tested for the inhibition of serotonin (5-HT) reuptake. The assay is classed as functional.
Target sequence in this assay (P31645 whole entry): as the sequence (P31645 whole entry) above

T2 sequence (Q01959 whole entry): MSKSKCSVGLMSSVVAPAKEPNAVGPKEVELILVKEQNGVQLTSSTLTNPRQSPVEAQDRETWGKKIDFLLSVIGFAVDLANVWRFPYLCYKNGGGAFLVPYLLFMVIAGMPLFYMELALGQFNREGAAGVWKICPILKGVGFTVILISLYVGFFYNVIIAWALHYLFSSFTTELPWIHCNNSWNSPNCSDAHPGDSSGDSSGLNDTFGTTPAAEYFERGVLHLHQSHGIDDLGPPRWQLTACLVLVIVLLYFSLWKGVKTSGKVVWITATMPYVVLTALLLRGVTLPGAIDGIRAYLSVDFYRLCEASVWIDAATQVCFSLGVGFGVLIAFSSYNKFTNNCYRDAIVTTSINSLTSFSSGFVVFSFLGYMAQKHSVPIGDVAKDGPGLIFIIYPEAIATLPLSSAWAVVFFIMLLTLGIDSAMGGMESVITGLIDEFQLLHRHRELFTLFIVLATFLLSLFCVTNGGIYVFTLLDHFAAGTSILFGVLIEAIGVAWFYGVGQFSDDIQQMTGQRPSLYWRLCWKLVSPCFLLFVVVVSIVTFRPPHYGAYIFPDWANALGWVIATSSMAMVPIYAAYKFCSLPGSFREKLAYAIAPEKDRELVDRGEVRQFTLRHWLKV

What is called Ki is a dissociation constant, usually derived from enzyme kinetics or from competition with a known ligand. Low values mean higher affinity, high ones lower affinity. Take `Fc1ccc(C(OCCC2CCN(Cc3cc4ccccc4[nH]3)CC2)c2ccc(F)cc2)cc1`: the affinity in assay [1] corresponds to a Ki of 88 nM. The Ratio in assay [2] worked out at 121.

In the case of `Fc1ccc(C(OCCC2CCN(CCCc3ccccc3)CC2)c2ccc(F)cc2)cc1`, the Ki was determined as 1.1 nM in assay [3] and 68 nM in assay [1]. Besides, the Ratio in assay [2] is 65.

Consider `Fc1ccc(C(OCCC2CCN(C/C=C/c3ccco3)CC2)c2ccc(F)cc2)cc1`, for which the Ki came out at 0.99 nM in assay [3] and 41 nM in assay [1]. Moreover, the Ratio in assay [2] was 41.

In assay [1], `Fc1ccc(C(OCCC2CCN(CC#Cc3ccccc3)CC2)c2ccc(F)cc2)cc1` displayed a Ki of 164 nM. In assay [2], the Ratio is 31.

For the compound `Fc1ccc(C(OCCC2CCN(C/C=C/c3ccccc3)CC2)c2ccc(F)cc2)cc1`, the figures for the inhibitory constant (Ki) in assay [3] and in assay [1] were 0.45 nM and 47 nM, respectively. Besides, the Ratio in assay [2] amounted to 104.

Turning to `Fc1ccc(C(OCCC2CCN(C/C=C/c3cccs3)CC2)c2ccc(F)cc2)cc1`, the Ki in assay [3] came to 1.3 nM; in assay [1] it was 45 nM. Moreover, the Ratio in assay [2] is 35.

Broadly, the IC50 is the midpoint of a concentration-inhibition curve. For `Fc1ccc(C(OCCC2CCN(Cc3cc4ccccc4s3)CC2)c2ccc(F)cc2)cc1`, the figures for the IC50 in assay [4], in assay [5] and in assay [6] were 11.9 nM, 260 nM and 1040 nM, respectively. The compound also had a Ki in assay [1] of 246 nM. The Ratio in assay [2] came to 153.

Turning to `Fc1ccc(C(OCCC2CCN(Cc3ccc4ccccc4c3)CC2)c2ccc(F)cc2)cc1`, the IC50 in assay [4] is 7.2 nM; in assay [5], 93 nM; in assay [6] it was 277 nM. In assay [1], this compound had a Ki of 229 nM. Besides, the Ratio in assay [2] was 323.

For the compound `Fc1ccc(C(OCCC2CCN(Cc3cccc4ccccc34)CC2)c2ccc(F)cc2)cc1`, the Ki in assay [3] was determined as 16 nM; in assay [1], 370 nM. Moreover, in assay [2], the Ratio worked out at 23.

On to `Fc1ccc(C(OCCC2CCN(Cc3cc4ccccc4o3)CC2)c2ccc(F)cc2)cc1`, for which, in assay [1], the Ki is 85 nM. Further, in assay [2], the Ratio worked out at 84.
